The target in test [1] is Sodium-dependent dopamine transporter (Rattus norvegicus) (UniProt P23977). As to the kind of experiment: The compound was tested for inhibition of dopamine reuptake.
Test [2] is described as follows: Sigma opioid receptor type 2 affinity in rat liver by employing [3H]ditolylguanidine as radioligand.
Test [3] can be described thus: Sigma opioid receptor type 1 affinity in guinea pig brain by employing [3H](+)-pentazocine as radioligand.

SMILES strings stand for the structures. pIC50, pKi: −log10 of the molar value. Bounds are passed on as bounds.

Sequence of Sodium-dependent dopamine transporter (Rattus norvegicus) (P23977 whole entry, looked up): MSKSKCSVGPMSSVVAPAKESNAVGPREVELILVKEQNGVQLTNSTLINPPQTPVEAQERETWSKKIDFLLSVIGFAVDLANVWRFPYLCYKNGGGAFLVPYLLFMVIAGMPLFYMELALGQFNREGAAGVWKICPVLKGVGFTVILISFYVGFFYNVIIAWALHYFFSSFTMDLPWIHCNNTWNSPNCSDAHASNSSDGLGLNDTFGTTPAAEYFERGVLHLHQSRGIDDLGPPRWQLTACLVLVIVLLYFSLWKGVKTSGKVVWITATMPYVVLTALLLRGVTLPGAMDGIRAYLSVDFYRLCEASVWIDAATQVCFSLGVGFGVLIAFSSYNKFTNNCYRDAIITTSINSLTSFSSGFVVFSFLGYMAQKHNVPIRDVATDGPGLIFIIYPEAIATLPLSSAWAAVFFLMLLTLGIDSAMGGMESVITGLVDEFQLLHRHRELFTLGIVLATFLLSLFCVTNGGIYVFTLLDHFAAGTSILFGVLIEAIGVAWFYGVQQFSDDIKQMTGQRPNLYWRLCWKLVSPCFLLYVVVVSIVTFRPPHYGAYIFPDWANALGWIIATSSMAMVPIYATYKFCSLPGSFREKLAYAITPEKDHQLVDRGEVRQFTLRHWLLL

As to `COC1Cc2ccccc2C2(CCN(CCCc3ccccc3)CC2)O1` (stereo not given), the pIC50 in test [1] was 5.80. Same read-out and setting: to `COC1OC2(CCN(Cc3ccccc3)CC2)c2ccccc21` (stereo not given) [1'-benzyl-3-methoxyspiro[1,3-dihydroisobenzofuran-1,4'-(hexahydropyridine)]] belongs less than 5.00.

Take `OC1Cc2ccccc2C2(CCN(CCc3ccccc3)CC2)O1` (stereo not given) [1'-phenethylspiro[3,4-dihydro-1H-isochromene-1,4'-(hexahydropyridine)]-3-ol]: the pKi is 6.97 in test [2] and 7.36 in test [3]. On to `COC1Cc2ccccc2C2(CCN(CCCCc3ccccc3)CC2)O1` (stereo not given) [1-[3-methoxyspiro[3,4-dihydro-1H-isochromene-1,4'-(hexahydropyridine)]-1-yl]-4-phenylbutane], for which the pKi in test [2] was 6.51; in test [3], 8.00. In the case of `COC1Cc2ccccc2C2(CCN(C/C=C/c3ccccc3)CC2)O1` (stereo not given) [3-[3-methoxyspiro[3,4-dihydro-1H-isochromene-1,4'-(hexahydropyridine)]-1-yl]-1-phenyl-(E)-1-propene], the pKi in test [2] was 5.40; in test [3] it was 7.89. `COC1Cc2ccccc2C2(CCN(C)CC2)O1` (stereo not given) [3-methoxy-1'-methylspiro[3,4-dihydro-1H-isochromene-1,4'-(hexahydropyridine)]]: the pKi is less than 5.00 in test [2] and 5.36 in test [3].

(Values after BindingDB's records for doi:10.1021/jm010992z (Pharmazeutisches Institut Der Universität Freiburg, 2002).)
